From ChEMBL document CHEMBL1201862, “PubChem BioAssay data set” (2004)
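All cell lines were grown in 96-well plates and treated with compound for 48 hours. GI50: concentration for 50% inhibition of growth.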 Active and inactive are the calls of the source. Cut-off read from the data, not from the text of the source: active = GI50 up to about 1.1 µM and inactive = higher.

Experiments:
Test in all cases: DTP human tumour cell line panel, 48 h
HT-29 = system: HT-29
SK-MEL-28 = system: SK-MEL-28
Hs-578T = system: Hs-578T
786-0 = system: 786-0
BT-549 = system: BT-549
SK-MEL-2 = system: SK-MEL-2
PC-3 = system: PC-3
MCF7 = system: MCF7
IGROV-1 = system: IGROV-1
SNB-75 = system: SNB-75
HCT-15 = system: HCT-15
HL-60 = system: HL-60
NCI-H522 = system: NCI-H522
OVCAR-5 = system: OVCAR-5
NCI-H460 = system: NCI-H460
U-251 = system: U-251
KM12 = system: KM12
HCC 2998 = system: HCC 2998
TK-10 = system: TK-10
SW-620 = system: SW-620
CAKI-1 = system: CAKI-1
EKVX = system: EKVX
SK-OV-3 = system: SK-OV-3
MDA-MB-231 = system: MDA-MB-231
NCI-H226 = system: NCI-H226
M14 = system: M14
SK-MEL-5 = system: SK-MEL-5
A549 = system: A549
SR = system: SR
HCT-116 = system: HCT-116
SF-268 = system: SF-268
SN12C = system: SN12C
RPMI-8226 = system: RPMI-8226
SF-295 = system: SF-295
K562 = system: K562
MDA-N = system: MDA-N
LOX IMVI = system: LOX IMVI
HOP-92 = system: HOP-92
NCI-H23 = system: NCI-H23
Malme-3M = system: Malme-3M
NCI/ADR-RES = system: NCI/ADR-RES
UACC-257 = system: UACC-257
UACC-62 = system: UACC-62
MDA-MB-435 = system: MDA-MB-435
DU-145 = system: DU-145
OVCAR-4 = system: OVCAR-4
T47D = system: T47D
HOP-62 = system: HOP-62
ACHN = system: ACHN
RXF 393 = system: RXF 393
OVCAR-8 = system: OVCAR-8
SNB-19 = system: SNB-19
UO-31 = system: UO-31
CCRF-CEM = system: CCRF-CEM
OVCAR-3 = system: OVCAR-3
SF-539 = system: SF-539
COLO 205 = system: COLO 205
MOLT-4 = system: MOLT-4

Structure (SMILES): Nc1nc(O)nc2snnc12
- GI50 (HT-29): > 100 µM (inactive)
- GI50 (SK-MEL-28): 6.27 µM (inactive)
- GI50 (Hs-578T): > 54.8 µM (inactive)
- GI50 (786-0): 6.38 µM (inactive)
- GI50 (BT-549): 3.54 µM (inactive)
- GI50 (SK-MEL-2): 1.75 µM (inactive)
- GI50 (PC-3): > 100 µM (inactive)
- GI50 (MCF7): > 100 µM (inactive)
- GI50 (IGROV-1): > 100 µM (inactive)
- GI50 (SNB-75): 5.28 µM (inactive)
- GI50 (HCT-15): > 89.7 µM
- GI50 (HL-60): 2.79 µM (inactive)
- GI50 (NCI-H522): > 100 µM (inactive)
- GI50 (OVCAR-5): > 100 µM (inactive)
- GI50 (NCI-H460): > 100 µM (inactive)
- GI50 (U-251): 25.1 µM (inactive)
- GI50 (KM12): > 100 µM (inactive)
- GI50 (HCC 2998): > 65.6 µM (inactive)
- GI50 (TK-10): > 22.4 µM (inactive)
- GI50 (SW-620): 5.4 µM (inactive)
- GI50 (CAKI-1): 1.77 µM (inactive)
- GI50 (EKVX): > 100 µM (inactive)
- GI50 (SK-OV-3): 50.2 µM (inactive)
- GI50 (MDA-MB-231): 7.13 µM (inactive)
- GI50 (NCI-H226): > 36.1 µM (inactive)
- GI50 (M14): 7.35 µM (inactive)
- GI50 (SK-MEL-5): > 74.3 µM (inactive)
- GI50 (A549): > 100 µM (inactive)
- GI50 (SR): 9.46 µM (inactive)
- GI50 (HCT-116): 7.89 µM (inactive)
- GI50 (SF-268): 5.04 µM (inactive)
- GI50 (SN12C): > 27.4 µM (inactive)
- GI50 (RPMI-8226): 5.7 µM (inactive)
- GI50 (SF-295): 33.2 µM (inactive)
- GI50 (K562): 7.26 µM (inactive)
- GI50 (MDA-N): 8.28 µM (inactive)
- GI50 (LOX IMVI): 2.92 µM (inactive)
- GI50 (HOP-92): 20.3 µM (inactive)
- GI50 (NCI-H23): > 100 µM (inactive)
- GI50 (Malme-3M): 8.65 µM (inactive)
- GI50 (NCI/ADR-RES): 32.6 µM (inactive)
- GI50 (UACC-257): 24.7 µM (inactive)
- GI50 (UACC-62): 7.26 µM (inactive)
- GI50 (MDA-MB-435): 4.59 µM (inactive)
- GI50 (DU-145): 16.9 µM (inactive)
- GI50 (OVCAR-4): > 53.7 µM (inactive)
- GI50 (T47D): 4.57 µM (inactive)
- GI50 (HOP-62): 8.07 µM (inactive)
- GI50 (ACHN): > 100 µM (inactive)
- GI50 (RXF 393): 4.66 µM (inactive)
- GI50 (OVCAR-8): 5.71 µM (inactive)
- GI50 (SNB-19): > 87.9 µM (inactive)
- GI50 (UO-31): 3.99 µM (inactive)
- GI50 (CCRF-CEM): 14.9 µM (inactive)
- GI50 (OVCAR-3): > 100 µM (inactive)
- GI50 (SF-539): 15.9 µM (inactive)
- GI50 (COLO 205): > 100 µM (inactive)
- GI50 (MOLT-4): 7.6 µM (inactive)

Structure (SMILES): Cc1nc2sc(CCl)nn2c(=O)c1Cl
- GI50 (HT-29): 12.9 µM (inactive)
- GI50 (SK-MEL-28): 12.8 µM (inactive)
- GI50 (Hs-578T): 19.1 µM (inactive)
- GI50 (786-0): 10.6 µM (inactive)
- GI50 (BT-549): 2.73 µM (inactive)
- GI50 (SK-MEL-2): 11.1 µM (inactive)
- GI50 (PC-3): 12.3 µM (inactive)
- GI50 (MCF7): 4.58 µM (inactive)
- GI50 (IGROV-1): 15 µM (inactive)
- GI50 (SNB-75): 10.9 µM (inactive)
- GI50 (HCT-15): 11.5 µM
- GI50 (HL-60): 13.1 µM (inactive)
- GI50 (NCI-H522): 3.15 µM (inactive)
- GI50 (OVCAR-5): 15.1 µM (inactive)
- GI50 (NCI-H460): 10.6 µM (inactive)
- GI50 (U-251): 6.08 µM (inactive)
- GI50 (KM12): 11.9 µM (inactive)
- GI50 (HCC 2998): 22 µM (inactive)
- GI50 (TK-10): 12.5 µM (inactive)
- GI50 (SW-620): 10.4 µM (inactive)
- GI50 (CAKI-1): 11.2 µM (inactive)
- GI50 (EKVX): 11.1 µM (inactive)
- GI50 (SK-OV-3): 14.6 µM (inactive)
- GI50 (MDA-MB-231): 20.5 µM (inactive)
- GI50 (NCI-H226): 14.9 µM (inactive)
- GI50 (M14): 12.1 µM (inactive)
- GI50 (SK-MEL-5): 5.07 µM (inactive)
- GI50 (A549): 15.1 µM (inactive)
- GI50 (SR): 4.61 µM (inactive)
- GI50 (HCT-116): 13.4 µM (inactive)
- GI50 (SF-268): 14.2 µM (inactive)
- GI50 (SN12C): 12.3 µM (inactive)
- GI50 (RPMI-8226): 5.62 µM (inactive)
- GI50 (SF-295): 16.6 µM (inactive)
- GI50 (K562): 12.1 µM (inactive)
- GI50 (MDA-N): 11.4 µM (inactive)
- GI50 (LOX IMVI): 1.92 µM (inactive)
- GI50 (HOP-92): 5.7 µM (inactive)
- GI50 (NCI-H23): 17.4 µM (inactive)
- GI50 (Malme-3M): 11.2 µM (inactive)
- GI50 (NCI/ADR-RES): 18.8 µM (inactive)
- GI50 (UACC-257): 12.3 µM (inactive)
- GI50 (UACC-62): 14 µM (inactive)
- GI50 (MDA-MB-435): 4.95 µM (inactive)
- GI50 (DU-145): 16.1 µM (inactive)
- GI50 (OVCAR-4): 15.7 µM (inactive)
- GI50 (T47D): 13.1 µM (inactive)
- GI50 (HOP-62): 17.6 µM (inactive)
- GI50 (ACHN): 15.7 µM (inactive)
- GI50 (RXF 393): 4.57 µM (inactive)
- GI50 (OVCAR-8): 14 µM (inactive)
- GI50 (SNB-19): 16.3 µM (inactive)
- GI50 (UO-31): 14.2 µM (inactive)
- GI50 (CCRF-CEM): 3.61 µM (inactive)
- GI50 (OVCAR-3): 15.9 µM (inactive)
- GI50 (SF-539): 16.7 µM (inactive)
- GI50 (COLO 205): 16.7 µM (inactive)
- GI50 (MOLT-4): 6.03 µM (inactive)
